Series [1] concerns SKOV3 ovarian cancer xenografts. Briefly: SKOV3 ovarian cancer xenograft, SorC13 with CAT chemotherapy (Example 26). Format: in vivo, NOD/SCID mice. The note with it: day 12; SorC13 300 mg/kg i.p. Day 1 to 12. Here is the method:
SorC13 stock solutions were prepared by dissolving the appropriate amounts of the compound in physiologically buffered saline (pH 7.0 at 25° C.) to comprise a final solution to deliver 300 mg/Kg mouse. Stock solutions were prepared weekly, stored at −20° C. and diluted fresh each day for dosing. All solutions were filter sterilized with a 0.22 mu filter prior to further manipulation. The filter sterilizer units were pre-washed with a small volume of sterile distilled water. […]
To implant SKOV3 tumor cells into NOD/SCID mice, cell cultures were centrifuged to pellet the cells, the supernatant was aspirated, the cell pellet resuspended in 10 ml of growth media and the cell number was determined using a hemocytometer. […]
Tumor volumes (V) were calculated by caliper measurement using standard measurements of the width (W), length (L) and thickness (T) of tumors. […] Percentage ΔT/ΔC values, as a measure of efficacy, were determined where ΔC refers to change in volume of control or untreated tumor, and ΔT refers to change in volume of treated tumor.
Animals were intraperitoneally (i.p.) injected with the vehicular control, or the low, medium or high doses of CAT or CAT and SorC13. […] The tumor volume and body weights were measured every day. As well, general health of the animals was monitored every day.

The nature of series [2]: Single dose acute intravenous bolus toxicity study with 5-day observation. The format is in vivo, CD-1 mice. Here is the method:
A single dose acute intravenous bolus injection toxicity study followed by a 5-day observation period in CD-1 mice was performed as described below. Three doses of each of SorC13 and SorC27 were used (10, 100 and 500 mg/Kg). Daily cage-side exams for 5 days with hourly exams for the first 4 hrs post injection. As part of the analysis the following assessments were made: body weights prior to dosing and at termination; all animals were necropsied (including preparation of bone marrow smears); organ weights were taken of all animals.
After in vivo i.v. injection into CD1 mice, SorC13 caused a small spike (approximately 25%) in blood pressure in the first 15 min which disappeared by 1 hour.

[3] abbreviates: single i.v. 10, 100 and 500 mg/kg.

Where no end group is shown, it is not given here.

For the sequence KEFLHPSKVDLPR [SorC13, KEFLHPSKVDLPR], in series [1], the “% ΔT/ΔC (tumour volume normalized to control volume)” value is 47.6% and the Mean tumor volume was found to be 116.8 mm^3.

Regarding EGKLSSNDTEGGLCKEFLHPSKVDLPR [SorC27], in series [2] (10, 100 and 500 mg/kg doses), the “Maximum Tolerated Dose in CD-1 mice by single i.v. dose” value is “No toxic effects”. Moreover, in series [2] (setting [3]), the “adverse events over 5-day post-injection observation period” value is reported as “no adverse events” and the “necropsy changes in major organ systems” value was “no significant changes in all major organ systems”.

The values are drawn from US10058587B2, “Peptide composition for cancer treatment by inhibiting TRPV6 calcium channel activity” (priority 2008, dated 2018).
